# From US7060277B2 (priority 1996, dated 2006)
# “Also recorded” adds a separate entry of the source. Square brackets hold non-standard residues; d marks the D form. Ends that are not written are not given here. Peptide text beside a SMILES is read from it.
# Experiments:
# [1] = system: SEB-mediated induction of IL-2, IFN-γ and/or TNF-β gene expression in PBMC; type: cell-based, human
# [2] = system: expression of IL-2 and IFN-γ genes in PBMC; type: cell-based, human
# [3] = mouse, in vivo
# [4] = pig
# SEB-induced lethal shock = system: SEB-induced lethal shock; design: species or system BALB/c mice; conditions: mouse, in vivo
# [5] = system: induction of IL-2 / IFN-γ mRNA by TSST-1 in PBMC; type: cell-based, human
compound,measurement,setting,value
IDQFLYFDLIYSIKDTKLGNY (IDQFLYFDLIYSIKDTKLGNY) [pSEB(41–61)],block of induction of IL-2 and IFN-γ mRNA by SEB,[1],failed to block induction of IL-2 and IFN-γ mRNA by SEB
same,"SEB agonist activity, induction of mRNA for IL-2 or IFN-γ by RNase protection",[2],failed to show SEB agonist activity
K K K A T V Q E L D (KKKATVQELD) [p10(152–161)],"antagonist activity, SEB-mediated IL-2 mRNA induction",[1],"pronounced antagonist activity; also recorded: lower, yet still significant, antagonist activity"
same,inhibition of IL-2 gene induction by SEB,[1],up to 8 fold
C Y N K K K A T V Q E L D C [Cys-p12(150–161)],"SEB antagonist activity, IL-2 and IFN-γ mRNA at 8 hrs",[1],"significant SEB antagonist activity, even upon tenfold dilution"
same,"SEB antagonist activity, overall comparison",[1],more powerful as antagonist than p12(150–161)
"CC(C)C[C@H](NC(=O)[C@H](CCC(=O)O)NC(=O)[C@H](CCC(N)=O)NC(=O)[C@@H](NC(=O)[C@@H](NC(=O)[C@H](C)NC(=O)[C@H](CCCCN)NC(=O)[C@H](CCCCN)NC(=O)[C@H](CCCCN)NC(=O)[C@H](CC(N)=O)NC(=O)[C@H](Cc1ccc(O)cc1)NC(=O)[C@H](CCC(N)=O)NC(=O)[C@@H](NC(=O)[C@@H](C)N)C(C)C)[C@@H](C)O)C(C)C)C(=O)N[C@@H](CC(=O)O)C(=O)N[C@H](C)C(=O)O [p14A, daV Q Y N K K K A T V Q E L Dda] (H-[dA]VQYNKKKATVQELD[dA]-OH)",viability and side effects of mice exposed to peptide alone,[3],stayed fully viable and showed no detectable side effects
same,toxin agonist activity in vivo,[4],without any detectable toxin agonist activity in vivo
same,symptoms of incapacitation in pigs that received peptide alone,[4]; in vivo,failed to develop any symptoms of incapacitation
lpV Q Y N K K K A T V Q E L D [p14A-LP],immunized mice that survived lethal SEB challenge,SEB-induced lethal shock,Ten out of 11
same,immunized survivors that survived rechallenge with a double dose of SEB,SEB-induced lethal shock,7 out of the 10
YNKKKATVQELDYNKKKATVQELIYNKKKATVQELD (YNKKKATVQELDYNKKKATVQELIYNKKKATVQELD) [Trimer],inhibition of induction of IL-2 and IFN-γ mRNA by SEB,[1],strongly inhibitory
K K K V T A Q E L D (KKKVTAQELD) [pSEB(152–161)],"antagonist activity, SEB-mediated IL-2 mRNA induction",[1],pronounced antagonist activity
"CC(C)C[C@H](NC(=O)[C@H](CCC(=O)O)NC(=O)[C@H](CCC(N)=O)NC(=O)[C@@H](NC(=O)[C@@H](NC(=O)[C@H](C)NC(=O)[C@H](CCCCN)NC(=O)[C@H](CCCCN)NC(=O)[C@H](CCCCN)NC(=O)[C@H](CC(N)=O)NC(=O)[C@H](Cc1ccc(O)cc1)NC(=O)[C@@H](C)N)[C@@H](C)O)C(C)C)C(=O)N[C@@H](CC(=O)O)C(=O)N[C@H](C)C(=O)O [p12A, daY N K K K A T V Q E L Dda] (H-[dA]YNKKKATVQELD[dA]-OH)","side effects in peptide-treated, SEB-challenged mice",[3],No side effects
same,viability and side effects of mice exposed to peptide alone,[3],stayed fully viable and showed no detectable side effects
"TNKKKVTAQELD [pSEB(150–161), T N K K K V T A Q E L D]",viability of PBMC cultured with peptide,PBMC,undiminished viability
YNKKKATVQELDYNKKKATVQELI (YNKKKATVQELDYNKKKATVQELD; listed as Staphylococcus aureus) [Dimer],"SEB antagonist activity, overall comparison",[1],more powerful as antagonist than p12(150–161)
same,"inhibition of IFN-γ mRNA induction by SEB, peptide diluted 100-fold",[1],detectable inhibition
same,inhibition of SEB-induced IL-2 and IFN-γ gene expression,[1],effective as antagonist
same,inhibition of induction of IL-2 and IFN-γ mRNA by SEB,[1],strongly inhibitory
same,inhibition of induction of IL-2 mRNA by SEB,[1],inhibited
same,inhibition of induction of IL-2 mRNA by TSST-1,[5],inhibited
"YNKKKATVQELD [p12(150–161), Y N K K K A T V Q E L D]",viability of PBMC cultured with peptide,PBMC,undiminished viability
